Measured values taken from patent US12637472B2, “Benzimidazole heteroatom-containing spiro compound and medicinal use thereof” (Changzhi University, priority 2023, dated 2026).

Legend:
Assay type in all cases: cell-based
[1] = test system: Human liver tumor cells HepG2; assay: MTT in vitro cell proliferation inhibition experiment, HepG2; details: Homo sapiens, MTT method, 48 h contact between compound and cell, read-out: Antiproliferative activity (IC50, μM) HepG2
Method: (§1) Human liver tumor cells HepG2, human colon cancer cells HCT116, and human gastric adenocarcinoma cells AGS were purchased from the Institute of Basic Medical Sciences, Chinese Academy of Medical Sciences. The cells each were preserved and passaged in the laboratory of the present disclosure according to respective cultivation data. Each cell line was routinely inoculated in a 50 mL cell culture flask, and cultivated with a 10% fetal bovine serum-containing DMEM/IRP-1640 medium at 37° C., 5% CO2, and 100% humidity, where the medium was changed daily. When growing to a confluency of 80% to 90%, cells were digested with a mixture of trypsin and EDTA and passaged according to 1:3.
(§2) An in vitro cell activity and proliferation inhibition experiment was conducted by an MTT method to investigate an impact of a target compound on a survival activity of each cell. Cells at a logarithmic growth phase were inoculated at 5×10^3 cells (100 μL)/well in a 96-well culture plate and cultivated for 24 h, and then compound solutions with different concentrations prepared in advance were added (100 μL) to the plate. At least 3 replicate wells were set for each concentration. A solvent control group without a compound and a blank control group without a cell were set. Edge wells each were filled with 200 μL of sterilized water. […] A liquid in each well was completely removed carefully, 150 μL of DMSO was added to each well, the plate was gently shaken on a microshaker for 10 min to make a purple crystal fully dissolved, and then an absorbance value was determined at 570 nm by a microplate reader. With a cell viability of the solvent control group without a compound as 100%, a cell survival rate was calculated as follows: a cell survival rate=(an absorbance value of a compound group−an absorbance value of the blank control group)/(an absorbance value of the control group−an absorbance value of the blank control group)×100%. A half-maximal inhibitory concentration (IC50) of a compound for a cell was calculated by the Graphpad Prism 5 software.

[2] = test system: human gastric adenocarcinoma cells AGS; assay: MTT in vitro cell proliferation inhibition experiment, AGS; details: Homo sapiens, MTT method, 48 h contact between compound and cell, read-out: Antiproliferative activity (IC50, μM) AGS
Method: as §1, §2

[3] = test system: human colon cancer cells HCT116; assay: MTT in vitro cell proliferation inhibition experiment, HCT116; details: Homo sapiens, HCT-116, MTT method, 48 h contact between compound and cell, read-out: Antiproliferative activity (IC50, μM) HCT116
Method: as §1, §2

Compound	IC50 [1] [µM]	IC50 [2] [µM]	IC50 [3] [µM]
CSCCC1NC2(C(=O)c3ccccc3C2=O)C(C(=O)c2nc3ccccc3[nH]2)C1c1ccc(Br)cc1 (stereo not drawn) [Compound 40, 3-(1H-benzimidazol-2-carbonyl)-4-(4-bromophenyl)-5-(2-methylthio)ethylspiro[inden-2,2′-pyrrolidine]-1,3-dione]	9.56	66.2	56.7
O=C(c1nc2ccccc2[nH]1)C1C(c2ccc(Cl)c(F)c2)C2CCCN2C12C(=O)c1ccccc1C2=O (stereo not drawn) [Compound 2, 2-(1H-benzimidazol-2-carbonyl)-1-(3-fluoro-4-chlorophenyl)-1,2,5,6,7,7a-hexahydrospiro[inden-2,3-pyrrolizine]-1,3-dione]	> 100	> 100	> 100
O=C(c1nc2ccccc2[nH]1)C1C(c2ccc(Br)cc2)C2CCCN2C12C(=O)c1ccccc1C2=O (stereo not drawn) [Compound 8, 2-(1H-benzimidazol-2-carbonyl)-1-4-bromophenyl-1,2,5,6,7,7a-hexahydrospiroinden-2,3-pyrrolizine-1,3-dione]	> 100	25.7	17.4
